Values quoted from earlier work, collected in patent US11571414B2, “Methods of treating respiratory illnesses, alleviating inflammation and visceral pain, and alleviating opioid addiction while suppressing withdrawal symptoms” (priority 2019, dated 2023).

Test system: μ-opioid receptor and the nociception receptor
Conditions: nonhuman primates

CC(C)C1CCC(N2CCC3(CC2)C(=O)N(CCNS(N)(=O)=O)Cc2ccccc23)CC1 (centres unmarked) [AT-121]
addictive effects: suppresses the addictive effects | analgesic effects: morphine-like analgesic effects
